Test results published in ChEMBL document CHEMBL4513161, “CO-ADD screening of MMV (CH) - Pandemic Response Box” (2021).
≈ marks a conversion by molar mass, not a printed value.

How the values were obtained:
HEK293 = test: cells; type: functional, Homo sapiens, ATCC CRL1573; conditions: Homo sapiens, ATCC CRL1573, HEK293; ASSAY_TEST Inhibition of Cell Viability; detection method Resazurin; Fluorescence (ex560/em590); MEDIA DMEM with 10% FBS; plate type 384well; TC; CORNING #3712; time 18 hr; read-out: CC50
Pseudomonas aeruginosa [1] = test: Antibacterial activity against Pseudomonas aeruginosa PAO397 [PAO1 d(mexAB-oprM) d(mexCD-oprJ) d(mexEF-oprN) d(mexJKL) d(mexXY) d(opmH)] (CO-ADD:GN_211); MIC in CAMBH media using NBS plates, by OD(600); type: functional; conditions: ASSAY_TEST Inhibition of Bacterial Growth, detection method Absorption (OD600), MEDIA CAMHB, plate type 384well, CORNING #3640, time 18 hr
Staphylococcus aureus = test: microbe, parasite or virus in culture; conditions: ATCC 43300, 18 h, ASSAY_TEST Inhibition of Bacterial Growth, detection method Absorption (OD600), MEDIA CAMHB, plate type 384well, NBS, CORNING #3640
Description: Antibacterial activity against Staphylococcus aureus MRSA ATCC 43300 (CO-ADD:GP_020); MIC in CAMBH media, using NBS plates, by OD(600)

Escherichia coli = test: microbe, parasite or virus in culture; conditions: ATCC 25922, 18 h, ASSAY_TEST Inhibition of Bacterial Growth, detection method Absorption (OD600), MEDIA CAMHB, plate type 384well, NBS, CORNING #3640
Description: Antibacterial activity against Escherichia coli ATCC 25922 (CO-ADD:GN_001); MIC in CAMBH media using NBS plates, by OD(600)

Klebsiella pneumoniae = test: microbe, parasite or virus in culture; conditions: ATCC 700603, 18 h, ASSAY_TEST Inhibition of Bacterial Growth, detection method Absorption (OD600), MEDIA CAMHB, plate type 384well, NBS, CORNING #3640
Description: Antibacterial activity against Klebsiella pneumoniae MDR ATCC 70063 (CO-ADD:GN_003); MIC in CAMBH media using NBS plates, by OD(600)

Pseudomonas aeruginosa [2] = test: microbe, parasite or virus in culture; conditions: ATCC 27853, 18 h, ASSAY_TEST Inhibition of Bacterial Growth, detection method Absorption (OD600), MEDIA CAMHB, plate type 384well, NBS, CORNING #3640
Description: Antibacterial activity against Pseudomonas aeruginosa ATCC 27853 (CO-ADD:GN_042); MIC in CAMBH media using NBS plates, by OD(600)

Acinetobacter baumannii = test: microbe, parasite or virus in culture; conditions: ATCC 19606, 18 h, ASSAY_TEST Inhibition of Bacterial Growth, detection method Absorption (OD600), MEDIA CAMHB, plate type 384well, NBS, CORNING #3640
Description: Antibacterial activity against Acinetobacter baumannii ATCC 19606 (CO-ADD:GN_034); MIC in CAMBH media using NBS plates, by OD600

Candida albicans = test: microbe, parasite or virus in culture; conditions: ATCC 90028, ASSAY_TEST Inhibition of Fungal Growth, detection method Absorption (OD530), plate type 384well, NBS, CORNING #3640
Description: Antifungal activity against Candida albicans ATCC 90028 (CO-ADD:FG_001); MIC in YNB media using NBS plates, by OD630

Description for Cryptococcus neoformans: Antifungal activity against Cryptococcus neoformans H99 ATCC 208821 (CO-ADD:FG_002); MIC in YNB media using NBS plates, by Resazurin OD(600-570)

MIC (Pseudomonas aeruginosa [1]) [µM] | MIC (Cryptococcus neoformans) [µM] | MIC (Staphylococcus aureus) [µM] | MIC (Escherichia coli) [µM] | MIC (Klebsiella pneumoniae) [µM] | MIC (Pseudomonas aeruginosa [2]) [µM] | MIC (Acinetobacter baumannii) [µM] | MIC (Candida albicans) [µM] | Structure (SMILES) | CC50 (HEK293) [µM]
> 20 | > 20 | > 20 | > 20 | > 20 | > 20 | > 20 | > 20 | CC1(C)C[C@H]1C(=O)N/C(=C\CCCCSC[C@@H](N)C(=O)O)C(=O)O | > 20
> 20 | > 20 | > 20 | > 20 | > 20 | > 20 | > 20 | > 20 | O=c1nc(N2CCN(CC3CCCCC3)CC2)sc2c([N+](=O)[O-])cc(C(F)(F)F)cc12 [MACOZINONE] | > 20
0.625 (≈ 0.231 µg/mL) | > 20 | 1.25 (≈ 0.462 µg/mL) | 10 (≈ 3.69 µg/mL) | > 20 | 5 (≈ 1.85 µg/mL) | > 20 | > 20 | COc1cc(NCc2ccc3nc(N)nc(N)c3c2C)cc(OC)c1OC [TRIMETREXATE] | > 20
> 20 | > 20 | > 20 | > 20 | > 20 | > 20 | > 20 | > 20 | Nc1cc(-c2nc3ccccc3[nH]2)n[nH]c1=O | > 20
> 20 | > 20 | > 20 | > 20 | > 20 | > 20 | > 20 | > 20 | Cc1ccn2c(C(=O)NCc3ccccc3)c(C)nc2c1 | > 20
> 20 | > 20 | > 20 | > 20 | > 20 | > 20 | > 20 | > 20 | CC(C)Oc1ccc(-c2nc(-c3cccc4c3CC[C@@H]4NCCO)no2)cc1C#N [OZANIMOD] | > 20
5 (≈ 1.77 µg/mL) | > 20 | 2.5 (≈ 0.886 µg/mL) | > 20 | > 20 | > 20 | > 20 | > 20 | COc1cc(Cc2cnc(N)nc2N)c2c(c1OC)OC(C1CC1)C=C2 (stereo unspecified) | > 20
> 20 | > 20 | > 20 | > 20 | > 20 | > 20 | > 20 | > 20 | C[C@@H](O)[C@H](N)C(=O)NS(=O)(=O)c1cccc(-c2ccc3[nH]ncc3c2)c1 | > 20
> 20 | > 20 | > 20 | > 20 | > 20 | > 20 | > 20 | > 20 | COc1ccc(C[C@@H](C)[C@@H](C)Cc2ccc(OC)c(OC)c2)cc1OC [TERAMEPROCOL] | > 20
> 20 | > 20 | > 20 | > 20 | > 20 | > 20 | > 20 | > 20 | Nc1nc2c(ncn2/C=C2/CC2(CO)CO)c(=O)[nH]1 [FILOCICLOVIR] | > 20
> 20 | > 20 | > 20 | > 20 | > 20 | > 20 | > 20 | > 20 | CC(C)CCN1C(=O)C(C2=NS(=O)(=O)c3cc(NS(C)(=O)=O)ccc3N2)=C(O)[C@@H]2[C@H]3CC[C@H](C3)[C@@H]21 | > 20
> 20 | > 20 | > 20 | > 20 | > 20 | > 20 | > 20 | > 20 | O=C(CP(=O)(O)O)NCCc1cccc(Oc2ccccc2)c1 | > 20
> 20 | > 20 | > 20 | > 20 | > 20 | > 20 | > 20 | > 20 | O=S(=O)(Nc1ccc(-n2cccc2)cc1)c1ccc(Cl)c(Cl)c1 | > 20
10 (≈ 2.86 µg/mL) | > 20 | 2.5 (≈ 0.716 µg/mL) | 2.5 (≈ 0.716 µg/mL) | 10 (≈ 2.86 µg/mL) | > 20 | > 20 | > 20 | C=CCc1cc(Cc2cnc(N)nc2N)cc(OC)c1O | > 20
> 20 | > 20 | 10 (≈ 3.08 µg/mL) | > 20 | > 20 | > 20 | > 20 | > 20 | CC(C)(C)c1cccc(-c2nc3cc(C(=N)N)ccc3[nH]2)c1O | > 20
> 20 | > 20 | > 20 | > 20 | > 20 | > 20 | > 20 | > 20 | Clc1ccc(Cn2c(CN3CCCC3)nc3ccccc32)cc1 [CLEMIZOLE] | > 20
> 20 | 0.312 (≈ 0.137 µg/mL) | > 20 | > 20 | > 20 | > 20 | > 20 | ≤ 0.156 | C[C@@H](c1nc(-c2ccc(C#N)cc2)cs1)[C@](O)(Cn1cncn1)c1ccc(F)cc1F [RAVUCONAZOLE] | > 20
> 20 | > 20 | > 20 | > 20 | > 20 | > 20 | > 20 | > 20 | Nc1ccc(-c2nc3cc(C(F)(F)F)ccc3n2C23CC4CC(CC(C4)C2)C3)cc1 | > 20
> 20 | > 20 | > 20 | > 20 | > 20 | > 20 | > 20 | > 20 | CC(=O)Nc1cc(NS(=O)(=O)c2ccc(Cl)cc2)cc2c(Cl)[nH]nc12 | > 20
> 20 | > 20 | > 20 | > 20 | > 20 | > 20 | > 20 | > 20 | CCCCN1C[C@H](O)[C@@H](O)[C@H](O)[C@H]1CO | > 20
> 20 | > 20 | > 20 | > 20 | > 20 | > 20 | > 20 | > 20 | C[C@H](NC(CC(=O)c1ccccc1C(F)(F)F)C(=O)O)c1ccccc1 (stereo partly specified) | > 20
> 20 | > 20 | > 20 | > 20 | > 20 | > 20 | > 20 | > 20 | COc1ccc(NS(=O)(=O)c2ccc(Cl)s2)cn1 | > 20
> 20 | > 20 | > 20 | > 20 | > 20 | > 20 | > 20 | > 20 | COc1ccc2c(c1)cc(CNC(=O)c1cc3ccccc3o1)n2CC(=O)O | > 20
> 20 | > 20 | > 20 | > 20 | > 20 | > 20 | > 20 | > 20 | C[C@H](NC(=O)C(=O)Nc1ccccc1C(C)(C)C)C(=O)N[C@@H](CC(=O)O)C(=O)COc1c(F)c(F)cc(F)c1F | > 20
